According to patent US20180141962A1, “AZACARBAZOLE BTK INHIBITORS” (MERCK SHARP & DOHME CORP., priority 2015, published 2018):

Each compound was assayed against T1, BTK enzyme (recombinant full-length BTK, hBTK) (Homo sapiens, UniProt Q06187) (assay: Btk enzyme activity assay, LANCE TR-FRET). Settings: 50 pM hBTK, 2 μM biotin-A5-peptide, 25 μM ATP; 60 minute compound & enzyme incubation; 120 minutes reaction; read-out: BTK binding potency IC50.
T1 construct: recombinant protein from baculovirus-transfected Sf9 cells: full-length BTK, 6HIS-tag cleaved; 6HIS (cleaved yes); made in house; host or cells: baculovirus-transfected Sf9 cells
T1 sequence (Q06187 whole entry): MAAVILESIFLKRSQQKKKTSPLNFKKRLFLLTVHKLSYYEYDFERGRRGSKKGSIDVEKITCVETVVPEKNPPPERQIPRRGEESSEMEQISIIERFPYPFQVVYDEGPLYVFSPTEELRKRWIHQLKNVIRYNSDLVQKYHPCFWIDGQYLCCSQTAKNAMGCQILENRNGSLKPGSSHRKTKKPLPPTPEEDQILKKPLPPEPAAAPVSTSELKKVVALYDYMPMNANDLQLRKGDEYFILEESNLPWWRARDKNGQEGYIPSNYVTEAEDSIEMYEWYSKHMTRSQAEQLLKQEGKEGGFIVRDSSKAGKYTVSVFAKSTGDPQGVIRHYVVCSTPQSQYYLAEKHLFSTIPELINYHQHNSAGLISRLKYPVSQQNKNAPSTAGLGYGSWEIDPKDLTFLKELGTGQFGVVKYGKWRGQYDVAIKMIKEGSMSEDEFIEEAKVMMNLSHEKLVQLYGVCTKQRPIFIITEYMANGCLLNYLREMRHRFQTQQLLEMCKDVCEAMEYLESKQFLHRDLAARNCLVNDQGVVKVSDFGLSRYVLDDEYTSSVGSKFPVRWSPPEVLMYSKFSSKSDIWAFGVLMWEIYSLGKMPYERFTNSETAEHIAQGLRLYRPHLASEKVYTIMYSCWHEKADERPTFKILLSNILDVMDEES
Type: biochemical
Description: Btk Enzyme Activity Assay Methods
BTK enzymatic activity was determined with the LANCE (Lanthanide Chelate Excite) TR-FRET (lime-resolved fluorescence resonance energy transfer) assay. […] Phosphorylation reactions were allowed to proceed for 120 minutes. […] After 60 minutes incubation with detection reagents, reaction plates were read on a PerkinElmer EnVision plate reader using standard TR-FRET protocol. Briefly, excitation of donor molecules (Eu-chelate:anti-phospho-antibody) with a laser light source at 337 nm produces energy that can be transferred to Dylight-650 acceptor molecules if this donor:acceptor pair is within close proximity. Fluorescence intensity at both 665 nm (acceptor) and 615 nm (donor) are measured and a TR-FRET ratio calculated for each well (acceptor intensity/donor intensity). IC50 values were determined by 4 parameter robust fit of TR-FRET ratio values vs. (Log10) compound concentrations.

Structure (SMILES) | IC50 [nM]
CN1CC(CO)C2(CCCN(c3ncc(C(N)=O)c4[nH]c5ccccc5c34)C2)C1=O (single isomer, unassigned) [Example 90, cis-1-(4-(hydroxymethyl)-2-methyl-1-oxo-2,7-diazaspiro[4.5]decan-7-yl)-5H-pyrido[4,3-b]indole-4-carboxamide] | 115
NC(=O)c1cnc(N2CCC3(CCNC3)CC2)c2c1[nH]c1ccccc12 [Example 12, 1-(2,8-diazaspiro[4.5]dec-8-yl)-5H-pyrido[4,3-b]indole-4-carboxamide] | 35
CC(C)N1CCC(c2ccc3[nH]c4c(C(N)=O)cnc(N5CCCC6(CCNC6=O)C5)c4c3c2)CC1 (stereo not shown) [Example 50, 8-[1-(1-methylethyl)piperidin-4-yl]-1-(1-oxo-2,7-diazaspiro[4.5]dec-7-yl)-5H-pyrido[4,3-b]indole-4-carboxamide] | 58.7
CNC(=O)N1CCC(c2ccc3c(c2)[nH]c2c(C(N)=O)cnc(N4CCCC5(CCNC5=O)C4)c23)CC1 (stereo not shown) [Example 53, 7-[1-(methylcarbamoyl)piperidin-4-yl]-1-(1-oxo-2,7-diazaspiro[4.5]dec-7-yl)-5H-pyrido[4,3-b]indole-4-carboxamide] | 1.4
O=C(NO)c1cnc(N2CCCC3(CCNC3=O)C2)c2c1[nH]c1ccccc12 (stereo not shown) [Example 9, N-hydroxy-1-(1-oxo-2,7-diazaspiro[4.5]dec-7-yl)-5H-pyrido[4,3-b]indole-4-carboxamide] | 384
CC(C)(O)CN1CCC(c2ccc3c(c2)[nH]c2c(C(N)=O)cnc(N4CCC[C@@]5(CCNC5=O)C4)c23)CC1 [Example 72, 7-[1-(2-hydroxy-2-methylpropyl)piperidin-4-yl]-1-[(5R)-1-oxo-2,7-diazaspiro[4.5]dec-7-yl]-5H-pyrido[4,3-b]indole-4-carboxamide] | 0.63
CC(C)(C)OC(=O)N1CC2(CCN(c3ncc(C(N)=O)c4[nH]c5ccccc5c34)CC2)C1 [Example 16, tert-butyl 7-(4-carbamoyl-5H-pyrido[4,3-b]indol-1-yl)-2,7-diazaspiro[3.5]nonane-2-carboxylate] | 98.7
COc1cc(-c2ccc3c(c2)[nH]c2c(C(N)=O)cnc(N4CCC[C@@]5(CCNC5=O)C4)c23)ccn1 [Example 69, 7-(2-methoxypyridin-4-yl)-1-[(5R)-1-oxo-2,7-diazaspiro[4.5]dec-7-yl]-5H-pyrido[4,3-b]indole-4-carboxamide] | 17.5
NC(=O)c1cnc(N2CCCC3(C2)NCCNC3=O)c2c1[nH]c1ccccc12 (stereo not shown) [Example 87, 1-(5-oxo-1,4,8-triazaspiro[5.5]undecan-8-yl)-5H-pyrido[4,3-b]indole-4-carboxamide] | 82.8
CS(=O)(=O)N1CCC(c2ccc3[nH]c4c(C(N)=O)cnc(N5CCCC6(CCNC6=O)C5)c4c3c2)CC1 (stereo not shown) [Example 66, 8-[1-(methylsulfonyl)piperidin-4-yl]-1-(1-oxo-2,7-diazaspiro[4.5]dec-7-yl)-5H-pyrido[4,3-b]indole-4-carboxamide] | 125
Cc1noc(C)c1-c1ccc2c(c1)[nH]c1c(C(N)=O)cnc(N3CCC[C@@]4(CCN(C)C4=O)C3)c12 [Example 80, 7-(3,5-dimethylisoxazol-4-yl)-1-[(5R)-2-methyl-1-oxo-2,7-diazaspiro[4.5]dec-7-yl]-5H-pyrido[4,3-b]indole-4-carboxamide] | 12.7
CN1CC[C@@]2(CCCN(c3ncc(C(N)=O)c4[nH]c5cc(C6CCN(CC(C)(C)O)CC6)ccc5c34)C2)C1=O [Example 77, 7-[1-(2-hydroxy-2-methylpropyl)piperidin-4-yl]-1-[(5R)-2-methyl-1-oxo-2,7-diazaspiro[4.5]dec-7-yl]-5H-pyrido[4,3-b]indole-4-carboxamide] | 0.55
COC(=O)N1CCC(c2ccc3c(c2)[nH]c2c(C(N)=O)cnc(N4CCCC5(CCNC5=O)C4)c23)CC1 (stereo not shown) [Example 56, methyl 4-[4-carbamoyl-1-(1-oxo-2,7-diazaspiro[4.5]dec-7-yl)-5H-pyrido[4,3-b]indol-7-yl]piperidine-1-carboxylate] | 3
CC(C)(C)c1ccc(N2CCC3(CCCN(c4ncc(C(N)=O)c5[nH]c6ccccc6c45)C3)C2=O)cc1 (stereo not shown) [Example 36, 1-[2-(4-tert-butylphenyl)-1-oxo-2,7-diazaspiro[4.5]dec-7-yl]-5H-pyrido[4,3-b]indole-4-carboxamide] | 9530
CC(=O)N1CCC2(C1)CN(c1ncc(C(N)=O)c3[nH]c4ccccc4c13)C2 [Example 27, 1-(6-acetyl-2,6-diazaspiro[3.4]oct-2-yl)-5H-pyrido[4,3-b]indole-4-carboxamide] | 232
COc1cc(-c2ccc3c(c2)[nH]c2c(C(N)=O)cnc(N4CCC[C@@]5(CCN(C)C5=O)C4)c23)ccn1 [Example 75, 7-(2-methoxypyridin-4-yl)-1-[(5R)-2-methyl-1-oxo-2,7-diazaspiro[4.5]dec-7-yl]-5H-pyrido[4,3-b]indole-4-carboxamide] | 9.5
NC(=O)c1cnc(N2CCCC3(CCNC(=O)C3)C2)c2c1[nH]c1ccccc12 (stereo not shown) [Example 37, 1-(8-oxo-2,9-diazaspiro[5.5]undec-2-yl)-5H-pyrido[4,3-b]indole-4-carboxamide] | 46.4
CC(C)(O)CN1CCC(c2ccc3[nH]c4c(C(N)=O)cnc(N5CCCC6(CCNC6=O)C5)c4c3c2)CC1 (stereo not shown) [Example 62, 8-[1-(2-hydroxy-2-methylpropyl)piperidin-4-yl]-1-(1-oxo-2,7-diazaspiro[4.5]dec-7-yl)-5H-pyrido[4,3-b]indole-4-carboxamide] | 59.7
CN1CC[C@@]2(CCCN(c3ncc(C(N)=O)c4[nH]c5cc(C6CCC(CC(C)(C)O)CC6)ccc5c34)C2)C1=O (stereo partly drawn) [Example 82, 7-[4-(2-hydroxy-2-methylpropyl)cyclohexyl]-1-[(5R)-2-methyl-1-oxo-2,7-diazaspiro[4.5]dec-7-yl]-5H-pyrido[4,3-b]indole-4-carboxamide] | 2.9
CN1CCC(c2ccc3c(c2)[nH]c2c(C(N)=O)cnc(N4CCCC5(CCNC5=O)C4)c23)CC1 (stereo not shown) [Example 55, 7-(1-methylpiperidin-4-yl)-1-(1-oxo-2,7-diazaspiro[4.5]dec-7-yl)-5H-pyrido[4,3-b]indole-4-carboxamide] | 1.3
NC(=O)c1cnc(N2CCC[C@@]3(CCCN(c4ccc(F)cc4)C3=O)C2)c2c1[nH]c1ccc(C(=O)O)cc12 [Example 8, 4-carbamoyl-1-[(6R)-8-(4-fluorophenyl)-7-oxo-2,8-diazaspiro[5.5]undec-2-yl]-5H-pyrido[4,3-b]indole-8-carboxylic acid] | 12.6
CC(C)N1CCC(c2ccc3c(c2)[nH]c2c(C(N)=O)cnc(N4CCCC5(CCNC5=O)C4)c23)CC1 (stereo not shown) [Example 52, 7-[1-(1-methylethyl)piperidin-4-yl]-1-(1-oxo-2,7-diazaspiro[4.5]dec-7-yl)-5H-pyrido[4,3-b]indole-4-carboxamide] | 0.96
NC(=O)c1cnc(N2CCCC3(CCCNC3=O)C2)c2c1[nH]c1ccccc12 (stereo not shown) [Example 30, 1-(7-oxo-2,8-diazaspiro[5.5]undec-2-yl)-5H-pyrido[4,3-b]indole-4-carboxamide] | 28
NC(=O)c1cnc(N2CCCC3(C2)C(=O)NCC3O)c2c1[nH]c1ccccc12 (mixture of isomers) [Example 86, 1-(4-hydroxy-1-oxo-2,7-diazaspiro[4.5]decan-7-yl)-5H-pyrido[4,3-b]indole-4-carboxamide] | 170
CC(C)c1ccc(N2CCCC3(CCCN(c4ncc(C(N)=O)c5[nH]c6ccccc6c45)C3)C2=O)cc1 (stereo not shown) [Example 5, 1-{8-[4-(1-methylethyl)phenyl]-7-oxo-2,8-diazaspiro[5.5]undec-2-yl}-5H-pyrido[4,3-b]indole-4-carboxamide] | 492
CC(C)(C)OC(=O)N1CCC2(CCN(c3ncc(C(N)=O)c4[nH]c5ccccc5c34)CC2)C1 [Example 13, tert-butyl 8-(4-carbamoyl-5H-pyrido[4,3-b]indol-1-yl)-2,8-diazaspiro[4.5]decane-2-carboxylate] | 163
NC(=O)c1cnc(N2CCC[C@@]3(CCNC3=O)C2)c2c1[nH]c1cc(-c3cc[nH]c(=O)c3)ccc12 [Example 70, 1-[(5R)-1-oxo-2,7-diazaspiro[4.5]dec-7-yl]-7-(2-oxo-1,2-dihydropyridin-4-yl)-5H-pyrido[4,3-b]indole-4-carboxamide] | 5.4

Same assay, conditions: BTK binding potency IC50 (nM), 50 pM hBTK, 2 μM biotin-A5-peptide, 25 μM ATP; 60 minute compound & enzyme incubation; 120 minutes reaction

Structure (SMILES) | IC50 [nM]
NC(=O)c1cnc(N2CCCC3(CCNC3=O)C2)c2c1[nH]c1ccccc12 (stereo in doubt) [Example 41, 1-[(5S)-1-oxo-2,7-diazaspiro[4.5]dec-7-yl]-5H-pyrido[4,3-b]indole-4-carboxamide] | 10.7
